This passage reports Ki and IC50 results from ChEMBL document CHEMBL1145029, “Design, synthesis, and evaluation of benzothiadiazepine hydroxamates as selective tumor necrosis factor-alpha converting enzyme inhibitors” (J Med Chem, 2003).

Some results are limits rather than exact numbers.

In test [1] the target is Matrix metalloproteinase-9 (Homo sapiens, UniProt P14780). As to the kind of experiment: In vitro inhibitory activity against broad spectrum matrix metalloprotease-9 (MMP-9).
In a further test the target is T1, Interstitial collagenase (Homo sapiens, UniProt P03956).
T1 sequence (P03956 whole entry): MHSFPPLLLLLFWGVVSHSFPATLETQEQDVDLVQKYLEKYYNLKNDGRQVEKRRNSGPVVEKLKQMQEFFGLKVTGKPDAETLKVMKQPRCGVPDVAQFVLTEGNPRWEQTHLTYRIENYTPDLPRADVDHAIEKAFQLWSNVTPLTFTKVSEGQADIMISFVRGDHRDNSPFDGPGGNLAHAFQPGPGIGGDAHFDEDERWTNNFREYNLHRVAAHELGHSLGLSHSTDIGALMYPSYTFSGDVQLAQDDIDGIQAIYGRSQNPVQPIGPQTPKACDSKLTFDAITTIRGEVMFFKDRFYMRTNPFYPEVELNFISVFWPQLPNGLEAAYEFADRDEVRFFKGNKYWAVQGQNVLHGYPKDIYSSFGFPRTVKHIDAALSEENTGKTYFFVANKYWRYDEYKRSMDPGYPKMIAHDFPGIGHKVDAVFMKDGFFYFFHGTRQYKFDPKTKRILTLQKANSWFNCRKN
As to the kind of experiment: In vitro inhibitory activity against broad spectrum matrix metalloprotease-1 (MMP-1).

Test [2] has as its target 72 kDa type IV collagenase (Homo sapiens, UniProt P08253).
Description: In vitro inhibitory activity against broad spectrum matrix metalloprotease-2 (MMP-2)
Test [3] deals with T2, Disintegrin and metalloproteinase domain-containing protein 17 (Homo sapiens, UniProt P78536). Briefly: Ability to suppress the formation of TNF-aplha in human peripheral blood mononuclear cell assay(PBMC). The format is functional.
The target of test [4] is T2, Disintegrin and metalloproteinase domain-containing protein 17. Briefly: Ability to suppress the formation of TNF-aplha in human whole blood assay (WBA). The test is classed as functional, tissue-based.

Sequence of Matrix metalloproteinase-9 (P14780 whole entry): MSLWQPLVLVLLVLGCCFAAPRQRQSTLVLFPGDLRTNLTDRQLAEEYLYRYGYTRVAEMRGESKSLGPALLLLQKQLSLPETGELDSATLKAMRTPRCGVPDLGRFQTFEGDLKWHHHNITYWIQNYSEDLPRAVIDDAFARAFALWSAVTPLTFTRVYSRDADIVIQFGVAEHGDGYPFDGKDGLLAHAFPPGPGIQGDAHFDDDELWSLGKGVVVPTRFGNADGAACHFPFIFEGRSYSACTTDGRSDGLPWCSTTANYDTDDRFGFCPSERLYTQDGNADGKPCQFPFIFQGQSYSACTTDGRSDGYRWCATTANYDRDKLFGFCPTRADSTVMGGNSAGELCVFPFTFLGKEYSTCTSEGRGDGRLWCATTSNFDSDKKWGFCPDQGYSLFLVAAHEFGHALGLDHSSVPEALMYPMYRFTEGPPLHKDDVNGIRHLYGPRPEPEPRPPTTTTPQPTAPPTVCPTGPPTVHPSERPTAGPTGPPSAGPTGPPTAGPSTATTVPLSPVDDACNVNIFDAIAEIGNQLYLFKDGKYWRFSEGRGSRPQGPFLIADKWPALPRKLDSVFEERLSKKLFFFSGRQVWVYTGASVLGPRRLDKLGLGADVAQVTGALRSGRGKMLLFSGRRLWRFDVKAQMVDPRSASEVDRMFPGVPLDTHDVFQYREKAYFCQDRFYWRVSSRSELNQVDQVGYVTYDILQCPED
Sequence of 72 kDa type IV collagenase (P08253 whole entry, the tested form may be a part): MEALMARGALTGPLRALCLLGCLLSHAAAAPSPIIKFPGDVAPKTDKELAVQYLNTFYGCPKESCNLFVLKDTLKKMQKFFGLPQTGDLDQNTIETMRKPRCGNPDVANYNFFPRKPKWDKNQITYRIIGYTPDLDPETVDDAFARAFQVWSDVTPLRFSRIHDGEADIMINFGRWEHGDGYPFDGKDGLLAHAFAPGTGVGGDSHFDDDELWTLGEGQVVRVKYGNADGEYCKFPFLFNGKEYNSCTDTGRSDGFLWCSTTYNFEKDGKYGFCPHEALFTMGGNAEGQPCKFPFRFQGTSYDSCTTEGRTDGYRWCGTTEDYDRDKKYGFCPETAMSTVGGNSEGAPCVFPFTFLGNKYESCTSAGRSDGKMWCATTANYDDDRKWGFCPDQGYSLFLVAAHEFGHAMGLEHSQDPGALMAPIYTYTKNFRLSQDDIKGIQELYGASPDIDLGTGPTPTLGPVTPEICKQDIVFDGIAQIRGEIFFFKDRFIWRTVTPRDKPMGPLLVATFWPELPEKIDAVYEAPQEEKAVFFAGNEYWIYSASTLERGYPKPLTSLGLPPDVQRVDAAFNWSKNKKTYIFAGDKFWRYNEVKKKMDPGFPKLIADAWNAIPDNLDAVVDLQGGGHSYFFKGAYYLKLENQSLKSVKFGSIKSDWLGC
T2 sequence (P78536 whole entry, the tested form may be a part): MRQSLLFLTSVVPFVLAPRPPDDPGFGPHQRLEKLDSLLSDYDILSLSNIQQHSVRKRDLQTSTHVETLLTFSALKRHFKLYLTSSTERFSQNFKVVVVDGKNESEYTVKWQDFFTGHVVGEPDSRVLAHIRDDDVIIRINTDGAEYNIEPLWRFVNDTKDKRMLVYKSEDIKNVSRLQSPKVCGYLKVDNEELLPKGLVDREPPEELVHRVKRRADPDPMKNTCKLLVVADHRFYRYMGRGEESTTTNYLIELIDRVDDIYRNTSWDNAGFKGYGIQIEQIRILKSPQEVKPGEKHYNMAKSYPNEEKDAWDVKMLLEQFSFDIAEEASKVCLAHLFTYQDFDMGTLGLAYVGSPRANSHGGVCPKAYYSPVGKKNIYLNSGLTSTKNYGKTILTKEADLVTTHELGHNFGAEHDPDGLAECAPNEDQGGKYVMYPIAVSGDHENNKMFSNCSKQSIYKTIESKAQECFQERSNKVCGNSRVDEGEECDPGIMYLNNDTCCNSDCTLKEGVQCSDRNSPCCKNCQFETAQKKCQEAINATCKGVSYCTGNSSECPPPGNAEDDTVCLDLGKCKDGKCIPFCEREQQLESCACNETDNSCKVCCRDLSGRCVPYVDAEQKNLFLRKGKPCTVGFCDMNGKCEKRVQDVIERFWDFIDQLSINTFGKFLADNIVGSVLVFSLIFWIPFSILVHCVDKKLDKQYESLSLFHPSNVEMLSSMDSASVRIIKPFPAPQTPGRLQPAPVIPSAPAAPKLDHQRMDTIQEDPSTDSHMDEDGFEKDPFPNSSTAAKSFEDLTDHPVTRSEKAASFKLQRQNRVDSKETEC

Regarding `C[C@H](C(=O)NO)N1CCNc2ccccc2S1(=O)=O`, the Ki is 567 nM in test [1], over 4950 nM at Interstitial collagenase and 75 nM in test [2].

As for `COc1cc(COc2ccc3c(c2)NCCN([C@H](CC(C)C)C(=O)NO)S3(=O)=O)cc(OC)c1`, the results for the Ki (in test [1]; at Interstitial collagenase; in test [2]) were over 2130 nM, over 4950 nM and 154 nM, respectively. In test [3], this compound returned a half-maximal inhibitory concentration (IC50) of 5400 nM.

Turning to `Cc1cc(C)cc(COc2ccc3c(c2)NCCN([C@H](C)C(=O)NO)S3(=O)=O)c1`, the Ki in test [1] is over 2130 nM; at Interstitial collagenase, over 4950 nM; in test [2], 136 nM.

As for `COc1cc(COc2ccc3c(c2)NCCN([C@@H](C(=O)NO)C(C)C)S3(=O)=O)cc(OC)c1`, the figures for the inhibition constant (Ki) (in test [1]; at Interstitial collagenase; in test [2]) were 981 nM, over 4950 nM and 647 nM, respectively. For the same compound, inhibition in test [3] was half-maximal at 4000 nM (IC50).

Turning to `Cc1cc(C)cc(C(=O)Nc2ccc3c(c2)NCCN([C@H](C)C(=O)NO)S3(=O)=O)c1`, the Ki in test [1] is 993 nM; on Interstitial collagenase it was over 4950 nM; in test [2], 94 nM.

As to `C[C@H](C(=O)NO)N1CCNc2cc(-c3ccccc3)ccc2S1(=O)=O`, the Ki in test [1] was 8 nM; at Interstitial collagenase, 272 nM; in test [2] it was under 2.8 nM.

With `C[C@H](C(=O)NO)N1CCNc2cc(Oc3ccc(C(F)(F)F)cc3)ccc2S1(=O)=O`, the values for the Ki (in test [1]; at Interstitial collagenase; in test [2]) were 7 nM, over 4950 nM and under 2.8 nM, respectively. For the same compound, in test [3], inhibition was half-maximal at 840 nM (IC50).

In the case of `COc1cc(COc2ccc3c(c2)NCCN([C@H](CCCCNC(=O)OC(C)(C)C)C(=O)NO)S3(=O)=O)cc(OC)c1`, the Ki is 118 nM in test [1], over 4950 nM at Interstitial collagenase and 32 nM in test [2].

For `Cc1cc(COc2ccc3c(c2)NCCN([C@H](C)C(=O)NO)S3(=O)=O)cc(C)n1`, the Ki is 1840 nM in test [1], over 4950 nM on Interstitial collagenase and 75 nM in test [2]. The same compound came in with an IC50 in test [3] of 2900 nM.

On to `C[C@H](C(=O)NO)N1CCNc2cc(-c3ccccc3C(F)(F)F)ccc2S1(=O)=O`, for which the results for the Ki (in test [1]; at Interstitial collagenase; in test [2]) were over 2130 nM, over 4950 nM and 2520 nM, respectively.

For `CCOc1cc(COc2ccc3c(c2)NCCN([C@H](CCCC(=O)OC)C(=O)NO)S3(=O)=O)cc(OCC)c1`, the IC50 in test [4] stood at 24000 nM; in test [3] it was 1100 nM. Besides, the Ki was over 2130 nM in test [1], over 4950 nM on Interstitial collagenase and 1380 nM in test [2].

Regarding `COc1ccc2c(c1)NCCN([C@@H](C(=O)NO)C(C)C)S2(=O)=O`, the inhibition constant Ki in test [1] is 751 nM; on Interstitial collagenase it was 732 nM; in test [2], 52 nM.

Consider `COc1ccc2c(c1)NCN([C@H](C)C(=O)NO)S2(=O)=O`, for which the Ki in test [1] was 1050 nM; at Interstitial collagenase, over 4950 nM; in test [2], 312 nM.

For `CC(C)C[C@H](C(=O)NO)N1CCNc2cc(O)ccc2S1(=O)=O`, the results for the Ki (in test [1]; at Interstitial collagenase; in test [2]) were 80 nM, 479 nM and 11 nM, respectively. Besides, it took 9500 nM to reach half-maximal inhibition in test [3] (IC50).

`C[C@H](C(=O)NO)N1CCNc2cc(Oc3ccc([N+](=O)[O-])cc3)ccc2S1(=O)=O`: the IC50 in test [4] was 15000 nM; in test [3], 1200 nM. Further, the Ki in test [1] is 19 nM; at Interstitial collagenase, over 4950 nM; in test [2], 8 nM.

On to `CCOc1cc(COc2ccc3c(c2)NCCN([C@H](C)C(=O)NO)S3(=O)=O)cc(OCC)c1`, for which the results for the inhibitory constant (Ki) (in test [1]; at Interstitial collagenase; in test [2]) were over 2130 nM, over 4950 nM and 690 nM, respectively. This compound displayed an IC50 in test [3] of 4500 nM.

Consider `COc1cc(COc2ccc3c(c2)NCCN([C@H](CCCCNS(C)(=O)=O)C(=O)NO)S3(=O)=O)cc(OC)c1`, for which the IC50 in test [4] is 38000 nM; in test [3], 1900 nM. In addition, the Ki is over 2130 nM in test [1], over 4950 nM on Interstitial collagenase and 391 nM in test [2].

`CC(C)C[C@H](C(=O)NO)N1CCNc2cc(OCc3ccccc3)ccc2S1(=O)=O`: the values for the Ki (in test [1]; on Interstitial collagenase; in test [2]) were under 2.1 nM, 548 nM and under 2.8 nM, respectively. In test [3], this compound returned an IC50 of 350 nM.

With `COc1cc(COc2ccc3c(c2)NCCN([C@H](CCCCN)C(=O)NO)S3(=O)=O)cc(OC)c1`, the Ki was over 2130 nM in test [1], over 4950 nM at Interstitial collagenase and 231 nM in test [2].

As for `COc1cc(COc2ccc3c(c2)NCCN([C@H](C)C(=O)NO)S3(=O)=O)cc(OC)c1`, the IC50 was 28000 nM in test [4] and 770 nM in test [3]. For the same compound, the inhibition constant (Ki) in test [1] was over 2130 nM; at Interstitial collagenase, over 4950 nM; in test [2], 491 nM.

With `C[C@H](C(=O)NO)N1CCNc2cc(Oc3ccc(-c4ccccc4)cc3)ccc2S1(=O)=O`, the Ki in test [1] is under 2.1 nM; at Interstitial collagenase, 2020 nM; in test [2] it was under 2.8 nM.

With `C[C@H](C(=O)NO)N1CCNc2cc(O)ccc2S1(=O)=O`, the results for the inhibition constant (Ki) (in test [1]; at Interstitial collagenase; in test [2]) were 100 nM, 980 nM and under 2.8 nM, respectively.

With `O=C(CN1CCNc2ccccc2S1(=O)=O)NO`, the values for the Ki (in test [1]; at Interstitial collagenase; in test [2]) were over 2130 nM, over 4950 nM and 1920 nM, respectively.

As for `C[C@H](C(=O)NO)N1CCNc2cc(OCc3ccccc3)ccc2S1(=O)=O`, the Ki in test [1] is 3.6 nM; at Interstitial collagenase it was over 4950 nM; in test [2] it was under 2.8 nM.

Consider `C[C@H](C(=O)NO)N1CCNc2cc(Oc3cccc([N+](=O)[O-])c3)ccc2S1(=O)=O`, for which the results for the IC50 in test [4] and in test [3] were 1400 nM and 470 nM, respectively. For the same compound, the Ki in test [1] is 96 nM; on Interstitial collagenase it was over 4950 nM; in test [2], 85 nM.

With `COC(=O)CCC[C@H](C(=O)NO)N1CCNc2cc(OCc3cc(OC)cc(OC)c3)ccc2S1(=O)=O`, the values for the inhibition constant (Ki) (in test [1]; on Interstitial collagenase; in test [2]) were over 2130 nM, over 4950 nM and 332 nM, respectively. This compound registered an IC50 in test [3] of 900 nM.

With `COc1ccc2c(c1)NCCN(CC(=O)NO)S2(=O)=O`, the Ki in test [1] is over 2130 nM; at Interstitial collagenase, over 4950 nM; in test [2], 1500 nM.

For the compound `C[C@H](C(=O)NO)N1CCNc2cc(OCc3cc(Cl)cc(Cl)c3)ccc2S1(=O)=O`, the Ki in test [1] was 1210 nM; on Interstitial collagenase it was over 4950 nM; in test [2], 49 nM. This compound registered an IC50 in test [3] of 940 nM.

On to `Cc1nc(COc2ccc3c(c2)NCCN([C@@H](C(=O)NO)C(C)C)S3(=O)=O)sc1C`, for which the Ki in test [1] was over 2130 nM; at Interstitial collagenase it was over 4950 nM; in test [2], 361 nM. The compound further registered an IC50 in test [3] of 24500 nM.

On to `COC(=O)CC[C@H](C(=O)NO)N1CCNc2cc(OCc3cc(OC)cc(OC)c3)ccc2S1(=O)=O`, for which the Ki in test [1] was over 2130 nM; at Interstitial collagenase, over 4950 nM; in test [2], 1590 nM. The compound also gave an IC50 in test [3] of 7200 nM.

Take `C[C@H](C(=O)NO)N1CCNc2cc(Oc3ccccc3)ccc2S1(=O)=O`: the Ki in test [1] is 3 nM; on Interstitial collagenase it was over 4950 nM; in test [2], 23 nM.

As for `CCOc1cc(COc2ccc3c(c2)NCCN([C@H](CCC(=O)OC)C(=O)NO)S3(=O)=O)cc(OCC)c1`, the values for the Ki (in test [1]; at Interstitial collagenase; in test [2]) were over 2130 nM, over 4950 nM and 960 nM, respectively. This compound also had an IC50 in test [3] of 6200 nM.

As to `COc1ccc(Oc2ccc3c(c2)NCCN([C@H](C)C(=O)NO)S3(=O)=O)cc1`, the Ki in test [1] was under 2.1 nM; at Interstitial collagenase, over 4950 nM; in test [2], under 2.8 nM.

Consider `COc1ccc2c(c1)NCCN([C@H](C)C(=O)NO)S2(=O)=O`, for which the Ki in test [1] worked out at 104 nM; on Interstitial collagenase, 1060 nM.

On to `CCOc1cc(COc2ccc3c(c2)NCCN([C@@H](C(=O)NO)C(C)C)S3(=O)=O)cc(OCC)c1`, for which the Ki in test [1] is over 2130 nM; on Interstitial collagenase it was over 4950 nM; in test [2], 3000 nM. Besides, in test [3], the half-maximal inhibitory concentration (IC50) came out at 8200 nM.

Consider `COc1cc(CNc2ccc3c(c2)NCCN([C@H](CC(C)C)C(=O)NO)S3(=O)=O)cc(OC)c1`, for which the Ki in test [1] was 347 nM; on Interstitial collagenase, over 4950 nM; in test [2], 75 nM.
